From ChEMBL document CHEMBL5696441 (Nat Chem Biol, 2011)
The source made the active and inactive calls. The rule behind the calls is not given here.

What was measured:
[1] = tested on: Tyrosine-protein kinase ABL1 (Homo sapiens), P00519 [Q252H]; assay: Inhibition of ABL1 Q252H mutant (unknown origin) assessed as remaining activity at 1 uM by Kinome scan method relative to control
[2] = molecular target: RAC-beta serine/threonine-protein kinase (Homo sapiens) (UniProt P31751); assay: Inhibition of AKT2 (unknown origin) assessed as remaining activity at 1 uM by Kinome scan method relative to control
[3] = molecular target: Tyrosine-protein kinase BTK (Homo sapiens) (UniProt Q06187); assay: Inhibition of BTK (unknown origin) assessed as remaining activity at 1 uM by Kinome scan method relative to control
Tyrosine-protein kinase BTK (Homo sapiens), sequence (Q06187 whole entry): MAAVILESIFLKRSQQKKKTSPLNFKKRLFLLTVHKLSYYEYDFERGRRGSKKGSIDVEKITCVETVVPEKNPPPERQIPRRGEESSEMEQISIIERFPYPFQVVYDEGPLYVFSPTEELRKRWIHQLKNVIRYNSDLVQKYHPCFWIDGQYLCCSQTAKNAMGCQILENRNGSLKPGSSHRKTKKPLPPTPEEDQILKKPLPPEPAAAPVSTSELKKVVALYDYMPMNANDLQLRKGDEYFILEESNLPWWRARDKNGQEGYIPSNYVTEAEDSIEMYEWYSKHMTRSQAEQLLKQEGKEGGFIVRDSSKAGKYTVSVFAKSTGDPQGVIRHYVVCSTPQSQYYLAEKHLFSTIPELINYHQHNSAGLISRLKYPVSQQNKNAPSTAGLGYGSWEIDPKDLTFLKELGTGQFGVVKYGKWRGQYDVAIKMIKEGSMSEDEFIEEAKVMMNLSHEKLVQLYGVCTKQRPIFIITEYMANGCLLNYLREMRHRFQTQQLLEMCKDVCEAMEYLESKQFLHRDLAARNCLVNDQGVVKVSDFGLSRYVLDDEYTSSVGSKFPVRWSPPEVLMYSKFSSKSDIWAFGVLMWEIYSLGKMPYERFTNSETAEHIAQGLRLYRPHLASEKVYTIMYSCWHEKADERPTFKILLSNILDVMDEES

[4] = molecular target: Fibroblast growth factor receptor 4 (Homo sapiens) (UniProt P22455); assay: Inhibition of FGFR4 (unknown origin) assessed as remaining activity at 1 uM by Kinome scan method relative to control
Fibroblast growth factor receptor 4 (Homo sapiens), sequence (P22455 22-802 limits assumed): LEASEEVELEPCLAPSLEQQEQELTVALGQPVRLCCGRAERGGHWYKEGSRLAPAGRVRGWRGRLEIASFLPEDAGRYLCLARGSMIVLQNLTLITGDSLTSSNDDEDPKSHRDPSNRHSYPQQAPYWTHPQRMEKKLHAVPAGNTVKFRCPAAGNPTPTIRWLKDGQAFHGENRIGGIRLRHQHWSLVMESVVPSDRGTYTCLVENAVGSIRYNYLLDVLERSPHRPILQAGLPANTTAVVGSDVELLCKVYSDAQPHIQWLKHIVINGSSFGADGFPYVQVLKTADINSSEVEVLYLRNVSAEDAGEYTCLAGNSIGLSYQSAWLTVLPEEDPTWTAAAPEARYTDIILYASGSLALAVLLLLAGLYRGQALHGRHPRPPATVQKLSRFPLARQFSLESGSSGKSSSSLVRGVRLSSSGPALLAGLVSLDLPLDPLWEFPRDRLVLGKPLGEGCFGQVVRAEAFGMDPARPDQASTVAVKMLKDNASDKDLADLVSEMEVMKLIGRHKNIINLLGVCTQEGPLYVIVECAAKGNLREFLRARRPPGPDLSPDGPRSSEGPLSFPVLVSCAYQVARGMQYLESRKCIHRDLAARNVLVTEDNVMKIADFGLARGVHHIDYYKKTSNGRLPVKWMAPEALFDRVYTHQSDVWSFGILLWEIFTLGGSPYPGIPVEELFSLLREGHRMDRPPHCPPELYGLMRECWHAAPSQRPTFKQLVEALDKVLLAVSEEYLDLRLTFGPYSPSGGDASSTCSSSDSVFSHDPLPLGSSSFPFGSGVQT

[5] = molecular target: G protein-coupled receptor kinase 4 (Homo sapiens) (UniProt P32298); assay: Inhibition of GRK4 (unknown origin) assessed as remaining activity at 1 uM by Kinome scan method relative to control
G protein-coupled receptor kinase 4 (Homo sapiens), sequence (P32298 whole entry, looked up): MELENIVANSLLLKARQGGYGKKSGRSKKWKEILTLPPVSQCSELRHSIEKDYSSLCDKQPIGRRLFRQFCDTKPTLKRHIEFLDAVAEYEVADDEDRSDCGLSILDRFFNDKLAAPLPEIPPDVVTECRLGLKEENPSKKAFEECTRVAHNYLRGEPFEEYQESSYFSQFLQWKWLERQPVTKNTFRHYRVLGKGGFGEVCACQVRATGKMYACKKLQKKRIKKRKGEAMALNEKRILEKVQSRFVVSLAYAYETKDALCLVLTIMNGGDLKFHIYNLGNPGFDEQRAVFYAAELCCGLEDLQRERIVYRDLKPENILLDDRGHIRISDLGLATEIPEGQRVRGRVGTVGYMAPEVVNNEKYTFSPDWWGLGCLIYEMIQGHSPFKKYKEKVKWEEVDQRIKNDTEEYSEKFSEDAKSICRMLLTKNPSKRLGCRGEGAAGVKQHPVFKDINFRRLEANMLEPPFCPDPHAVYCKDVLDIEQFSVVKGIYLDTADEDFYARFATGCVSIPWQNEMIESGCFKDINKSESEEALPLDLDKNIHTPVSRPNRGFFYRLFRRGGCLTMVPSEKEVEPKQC

[6] = molecular target: Serine/threonine-protein kinase Nek7 (Homo sapiens) (UniProt Q8TDX7); assay: Inhibition of NEK7 (unknown origin) assessed as remaining activity at 1 uM by Kinome scan method relative to control
[7] = molecular target: Angiopoietin-1 receptor (Homo sapiens) (UniProt Q02763); assay: Inhibition of TIE2 (unknown origin) assessed as remaining activity at 1 uM by Kinome scan method relative to control
[8] = molecular target: Activated CDC42 kinase 1 (Homo sapiens) (UniProt Q07912); assay: Inhibition of TNK2 (unknown origin) assessed as remaining activity at 1 uM by Kinome scan method relative to control
Activated CDC42 kinase 1 (Homo sapiens), sequence (Q07912 whole entry, looked up): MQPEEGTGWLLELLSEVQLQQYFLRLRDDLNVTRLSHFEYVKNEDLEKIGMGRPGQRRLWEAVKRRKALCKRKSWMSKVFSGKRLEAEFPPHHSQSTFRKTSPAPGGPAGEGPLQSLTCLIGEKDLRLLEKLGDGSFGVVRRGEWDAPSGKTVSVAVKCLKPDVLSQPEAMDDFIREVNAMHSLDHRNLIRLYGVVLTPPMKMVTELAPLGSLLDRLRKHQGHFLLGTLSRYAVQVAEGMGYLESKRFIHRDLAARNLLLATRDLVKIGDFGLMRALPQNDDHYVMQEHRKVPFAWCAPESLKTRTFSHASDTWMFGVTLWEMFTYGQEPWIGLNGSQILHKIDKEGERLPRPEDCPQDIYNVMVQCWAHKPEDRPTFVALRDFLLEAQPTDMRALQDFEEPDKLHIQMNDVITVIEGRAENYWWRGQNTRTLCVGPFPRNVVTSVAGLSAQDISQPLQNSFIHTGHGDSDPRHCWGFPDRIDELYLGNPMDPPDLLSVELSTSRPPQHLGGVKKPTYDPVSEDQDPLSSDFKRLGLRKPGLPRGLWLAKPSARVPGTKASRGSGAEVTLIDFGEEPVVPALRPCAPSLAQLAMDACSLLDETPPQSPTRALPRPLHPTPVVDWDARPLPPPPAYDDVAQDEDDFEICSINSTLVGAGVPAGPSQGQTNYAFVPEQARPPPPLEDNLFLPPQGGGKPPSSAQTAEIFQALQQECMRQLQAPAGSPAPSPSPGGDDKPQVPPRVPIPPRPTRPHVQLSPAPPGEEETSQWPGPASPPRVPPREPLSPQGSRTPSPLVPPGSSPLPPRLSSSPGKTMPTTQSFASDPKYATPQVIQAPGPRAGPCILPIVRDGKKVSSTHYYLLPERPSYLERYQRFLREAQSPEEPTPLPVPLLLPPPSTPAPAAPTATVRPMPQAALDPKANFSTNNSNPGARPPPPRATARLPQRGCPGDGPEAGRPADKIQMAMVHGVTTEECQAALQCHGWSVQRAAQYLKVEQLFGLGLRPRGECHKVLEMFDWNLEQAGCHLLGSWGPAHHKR

[9] = molecular target: Dual specificity tyrosine-phosphorylation-regulated kinase 1A (Homo sapiens) (UniProt Q13627); assay: Inhibition of human DYRK1A assessed as residual activity at 1 uM using RBER-CHKtide as substrate in presence of 33P-ATP by ProQinase assay relative to control
[10] = molecular target: Ephrin type-B receptor 2 (Homo sapiens) (UniProt P29323); assay: Inhibition of human EPHB2 assessed as residual activity at 1 uM using poly(Ala,Glu,Lys,Tyr)6:2:5:1 as substrate in presence of 33P-ATP by ProQinase assay relative to control
[11] = molecular target: T1, Inhibitor of nuclear factor kappa-B kinase subunit alpha (Homo sapiens) (UniProt O15111); assay: Inhibition of human IKKalpha assessed as residual activity at 1 uM using RBER-CHKtide as substrate in presence of 33P-ATP by ProQinase assay relative to control
T1 sequence (whole entry): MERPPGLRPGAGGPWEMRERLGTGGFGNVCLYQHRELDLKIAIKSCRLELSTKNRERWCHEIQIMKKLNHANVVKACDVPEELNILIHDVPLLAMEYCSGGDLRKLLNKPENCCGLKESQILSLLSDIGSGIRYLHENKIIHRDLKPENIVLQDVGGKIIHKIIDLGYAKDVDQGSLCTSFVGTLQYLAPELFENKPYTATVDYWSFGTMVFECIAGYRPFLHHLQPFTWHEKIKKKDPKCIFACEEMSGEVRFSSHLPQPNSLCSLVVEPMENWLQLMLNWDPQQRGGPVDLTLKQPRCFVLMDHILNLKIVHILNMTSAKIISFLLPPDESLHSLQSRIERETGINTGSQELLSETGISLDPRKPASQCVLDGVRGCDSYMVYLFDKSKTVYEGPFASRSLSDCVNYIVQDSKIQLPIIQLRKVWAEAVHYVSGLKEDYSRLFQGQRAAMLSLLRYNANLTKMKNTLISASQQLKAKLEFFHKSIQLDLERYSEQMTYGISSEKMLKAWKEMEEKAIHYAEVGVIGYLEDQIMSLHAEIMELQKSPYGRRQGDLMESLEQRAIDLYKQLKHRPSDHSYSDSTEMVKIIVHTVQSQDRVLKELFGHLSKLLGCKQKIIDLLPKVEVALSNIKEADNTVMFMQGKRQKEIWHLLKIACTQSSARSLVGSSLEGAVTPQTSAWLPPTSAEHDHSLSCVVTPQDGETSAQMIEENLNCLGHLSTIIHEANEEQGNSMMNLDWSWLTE

[12] = molecular target: Serine/threonine-protein kinase 26 (Homo sapiens) (UniProt Q9P289); assay: Inhibition of human MST4 assessed as residual activity at 1 uM using RB-CTF as substrate in presence of 33P-ATP by ProQinase assay relative to control
[13] = molecular target: Serine/threonine-protein kinase PAK 2 (Homo sapiens) (UniProt Q13177); assay: Inhibition of human PAK2 assessed as residual activity at 1 uM using bio-4xCHKT as substrate in presence of 33P-ATP by ProQinase assay relative to control
Serine/threonine-protein kinase PAK 2 (Homo sapiens), sequence (Q13177 whole entry): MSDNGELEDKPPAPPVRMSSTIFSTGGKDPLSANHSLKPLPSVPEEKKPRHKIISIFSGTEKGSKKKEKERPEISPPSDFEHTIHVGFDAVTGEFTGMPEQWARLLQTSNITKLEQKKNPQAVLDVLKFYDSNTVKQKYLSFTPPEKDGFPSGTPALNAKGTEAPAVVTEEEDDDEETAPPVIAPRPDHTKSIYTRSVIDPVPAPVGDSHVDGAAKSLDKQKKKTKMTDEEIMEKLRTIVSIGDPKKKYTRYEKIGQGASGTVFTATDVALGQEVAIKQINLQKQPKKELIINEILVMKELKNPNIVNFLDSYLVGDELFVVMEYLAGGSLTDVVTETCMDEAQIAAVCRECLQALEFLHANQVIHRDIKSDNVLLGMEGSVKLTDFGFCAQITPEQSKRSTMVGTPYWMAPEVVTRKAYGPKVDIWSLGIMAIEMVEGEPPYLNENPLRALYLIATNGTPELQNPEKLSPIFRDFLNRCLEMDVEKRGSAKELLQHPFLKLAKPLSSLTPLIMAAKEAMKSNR

[14] = molecular target: Protein kinase C beta type (Homo sapiens) (UniProt P05771); assay: Inhibition of human PKCbeta1 assessed as residual activity at 1 uM using 3xChocktide-PKC(19-31) as substrate in presence of 33P-ATP by ProQinase assay relative to control
Protein kinase C beta type (Homo sapiens), sequence (P05771 2-671 limits assumed): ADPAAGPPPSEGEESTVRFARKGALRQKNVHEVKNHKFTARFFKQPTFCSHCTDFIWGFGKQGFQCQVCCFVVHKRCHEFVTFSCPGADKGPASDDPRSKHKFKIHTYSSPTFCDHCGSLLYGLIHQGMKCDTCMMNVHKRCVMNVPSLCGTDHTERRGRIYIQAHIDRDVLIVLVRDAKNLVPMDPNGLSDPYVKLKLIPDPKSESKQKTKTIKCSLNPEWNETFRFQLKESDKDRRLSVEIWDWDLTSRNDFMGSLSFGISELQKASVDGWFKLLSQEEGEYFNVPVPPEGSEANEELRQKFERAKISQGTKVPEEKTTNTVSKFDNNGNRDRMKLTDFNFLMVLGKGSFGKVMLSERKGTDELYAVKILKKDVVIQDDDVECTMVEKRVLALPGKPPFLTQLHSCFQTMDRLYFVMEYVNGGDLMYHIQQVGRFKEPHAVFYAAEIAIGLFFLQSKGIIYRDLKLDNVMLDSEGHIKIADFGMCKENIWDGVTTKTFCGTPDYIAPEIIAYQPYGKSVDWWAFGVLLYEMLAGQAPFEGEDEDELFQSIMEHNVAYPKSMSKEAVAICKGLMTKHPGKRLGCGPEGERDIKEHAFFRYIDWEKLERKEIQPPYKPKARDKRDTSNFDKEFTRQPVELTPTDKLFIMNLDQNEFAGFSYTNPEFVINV

[15] = molecular target: Protein kinase C epsilon type (Homo sapiens) (UniProt Q02156); assay: Inhibition of human PKCepsilon assessed as residual activity at 1 uM using 3xChocktide-PKC(19-31) as substrate in presence of 33P-ATP by ProQinase assay relative to control
Protein kinase C epsilon type (Homo sapiens), sequence (Q02156 whole entry): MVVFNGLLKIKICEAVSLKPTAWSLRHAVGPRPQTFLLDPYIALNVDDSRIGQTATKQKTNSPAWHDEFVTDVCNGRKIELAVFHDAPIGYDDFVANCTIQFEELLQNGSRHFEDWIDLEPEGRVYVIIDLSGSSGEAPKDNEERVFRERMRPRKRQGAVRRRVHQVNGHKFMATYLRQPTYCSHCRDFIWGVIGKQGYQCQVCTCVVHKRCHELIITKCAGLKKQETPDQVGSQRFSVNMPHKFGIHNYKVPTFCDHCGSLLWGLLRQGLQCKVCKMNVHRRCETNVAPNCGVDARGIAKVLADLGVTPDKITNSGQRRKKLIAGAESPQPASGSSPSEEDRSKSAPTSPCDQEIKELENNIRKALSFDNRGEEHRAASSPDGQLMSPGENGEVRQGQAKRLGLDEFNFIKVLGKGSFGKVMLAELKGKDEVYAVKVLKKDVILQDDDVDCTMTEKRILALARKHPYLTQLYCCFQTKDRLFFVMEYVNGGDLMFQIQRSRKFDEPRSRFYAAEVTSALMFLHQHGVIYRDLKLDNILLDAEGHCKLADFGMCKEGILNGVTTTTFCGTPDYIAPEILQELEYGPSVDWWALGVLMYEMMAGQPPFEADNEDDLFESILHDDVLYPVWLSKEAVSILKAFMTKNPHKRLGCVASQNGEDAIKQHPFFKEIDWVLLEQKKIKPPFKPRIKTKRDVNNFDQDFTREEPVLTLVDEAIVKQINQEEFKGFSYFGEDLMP

[16] = molecular target: Protein kinase C gamma type (Homo sapiens) (UniProt P05129); assay: Inhibition of human PKCgamma assessed as residual activity at 1 uM using 3xChocktide-PKC(19-31) as substrate in presence of 33P-ATP by ProQinase assay relative to control
[17] = tested on: RAF proto-oncogene serine/threonine-protein kinase (Homo sapiens), P04049 [Y340D,Y341D]; assay: Inhibition of human RAF1 Y340D/Y341D double mutant assessed as residual activity at 1 uM using MEK1-K97M as substrate in presence of 33P-ATP by ProQinase assay relative to control
[18] = molecular target: Non-receptor tyrosine-protein kinase TYK2 (Homo sapiens) (UniProt P29597); assay: Inhibition of human TYK2 assessed as residual activity at 1 uM using poly(Ala,Glu,Lys,Tyr)6:2:5:1 as substrate in presence of 33P-ATP by ProQinase assay relative to control
[19] = Anti-inflammatory activity against human derived high respond PBMC cells assessed as inhibition in stimulated IL-1ra cytokine release incubated for 2 hrs in the presence of LPS/SEB/aCD28 by Luminex based sandwich immunoassay; type: functional, cell-based
PBMC = assay: Anti-inflammatory activity against human derived high respond PBMC cells assessed as increase in stimulated IL-12p70 cytokine release at 1 uM incubated for 2 hrs in the presence of LPS/SEB/aCD28 by Luminex based sandwich immunoassay; type: functional, cell-based
[20] = Anti-inflammatory activity against human derived high respond PBMC cells assessed as inhibition in stimulated IL-10 cytokine release incubated for 2 hrs in the presence of LPS/SEB/aCD28 by Luminex based sandwich immunoassay; type: functional, cell-based
[21] = Anti-inflammatory activity against human derived medium respond PBMC cells assessed as inhibition in stimulated IP-10 chemokine release incubated for 2 hrs in the presence of LPS/SEB/aCD28 by Luminex based sandwich immunoassay; type: functional, cell-based

SMILES: O=C1c2ccc(Nc3ccc(F)cc3F)cc2CCc2ccc(OC[C@H](O)CO)cc21 [Skepinone-L]
- Activity [1]: 93%
- Activity [2]: 90%
- Activity [3]: 100%
- Activity [4]: 98%
- Activity [5]: 100%
- Activity [6]: 96%
- Activity [7]: 100%
- Activity [8]: 100%
- Activity [9]: 96%
- Activity [10]: 91%
- Activity [11]: 88%
- Activity [12]: 106%
- Activity [13]: 83%
- Activity [14]: 103%
- Activity [15]: 99%
- Activity [16]: 99%
- Activity [17]: 91%
- Activity [18]: 96%
- IC50 [19]: 200 nM
- Activity (PBMC): Active
- IC50 [20]: 50 nM
- IC50 [21]: 5900 nM
